Measurements: patent publication US10054581B1, “Inhibitors of notch signaling pathway and use thereof in treatment of cancers” (Ecole Polytechnique Federale de Lausanne (EPFL), priority 2011, dated 2018)
“Also recorded” adds a separate entry of the source.

Columns and labels:
[1] = biological target: T1, NICD, MAML1 and CSL/RBP-jk (Homo sapiens, UniProt P46531+Q06330+Q92585); assay: Microscopy of NICD-GFP, MAML1-FLAG and CSL/RBP-jk localization in HeLa cells; format: cell-based
T1 construct: expressed in transfected cells; host or cells: HeLa cells (NICD-GFP and MAML1-FLAG transfected; CSL/RBP-jk endogenous)
T1 sequence (P46531 1754-2555 limits assumed): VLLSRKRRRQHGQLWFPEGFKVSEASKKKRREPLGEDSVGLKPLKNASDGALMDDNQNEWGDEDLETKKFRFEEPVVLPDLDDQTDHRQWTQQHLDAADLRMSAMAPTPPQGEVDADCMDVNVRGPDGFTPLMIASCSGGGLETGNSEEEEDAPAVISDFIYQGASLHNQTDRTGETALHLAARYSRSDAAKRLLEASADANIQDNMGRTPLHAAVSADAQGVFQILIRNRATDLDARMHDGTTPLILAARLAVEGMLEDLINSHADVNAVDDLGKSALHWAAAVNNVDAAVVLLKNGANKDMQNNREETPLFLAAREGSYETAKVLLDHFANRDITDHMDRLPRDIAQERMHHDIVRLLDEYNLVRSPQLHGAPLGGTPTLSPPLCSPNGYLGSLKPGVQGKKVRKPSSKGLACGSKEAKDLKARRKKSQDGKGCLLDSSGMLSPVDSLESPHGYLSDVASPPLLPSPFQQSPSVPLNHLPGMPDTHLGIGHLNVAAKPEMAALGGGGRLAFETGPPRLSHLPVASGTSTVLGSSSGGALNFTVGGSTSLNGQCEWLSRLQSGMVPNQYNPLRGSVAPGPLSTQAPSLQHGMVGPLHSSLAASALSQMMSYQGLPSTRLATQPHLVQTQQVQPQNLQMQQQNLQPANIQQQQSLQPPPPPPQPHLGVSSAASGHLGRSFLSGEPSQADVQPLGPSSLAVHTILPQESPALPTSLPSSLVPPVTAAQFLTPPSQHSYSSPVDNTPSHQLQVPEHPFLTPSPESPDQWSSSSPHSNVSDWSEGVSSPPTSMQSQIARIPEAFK
T1 sequence (Q92585 whole entry): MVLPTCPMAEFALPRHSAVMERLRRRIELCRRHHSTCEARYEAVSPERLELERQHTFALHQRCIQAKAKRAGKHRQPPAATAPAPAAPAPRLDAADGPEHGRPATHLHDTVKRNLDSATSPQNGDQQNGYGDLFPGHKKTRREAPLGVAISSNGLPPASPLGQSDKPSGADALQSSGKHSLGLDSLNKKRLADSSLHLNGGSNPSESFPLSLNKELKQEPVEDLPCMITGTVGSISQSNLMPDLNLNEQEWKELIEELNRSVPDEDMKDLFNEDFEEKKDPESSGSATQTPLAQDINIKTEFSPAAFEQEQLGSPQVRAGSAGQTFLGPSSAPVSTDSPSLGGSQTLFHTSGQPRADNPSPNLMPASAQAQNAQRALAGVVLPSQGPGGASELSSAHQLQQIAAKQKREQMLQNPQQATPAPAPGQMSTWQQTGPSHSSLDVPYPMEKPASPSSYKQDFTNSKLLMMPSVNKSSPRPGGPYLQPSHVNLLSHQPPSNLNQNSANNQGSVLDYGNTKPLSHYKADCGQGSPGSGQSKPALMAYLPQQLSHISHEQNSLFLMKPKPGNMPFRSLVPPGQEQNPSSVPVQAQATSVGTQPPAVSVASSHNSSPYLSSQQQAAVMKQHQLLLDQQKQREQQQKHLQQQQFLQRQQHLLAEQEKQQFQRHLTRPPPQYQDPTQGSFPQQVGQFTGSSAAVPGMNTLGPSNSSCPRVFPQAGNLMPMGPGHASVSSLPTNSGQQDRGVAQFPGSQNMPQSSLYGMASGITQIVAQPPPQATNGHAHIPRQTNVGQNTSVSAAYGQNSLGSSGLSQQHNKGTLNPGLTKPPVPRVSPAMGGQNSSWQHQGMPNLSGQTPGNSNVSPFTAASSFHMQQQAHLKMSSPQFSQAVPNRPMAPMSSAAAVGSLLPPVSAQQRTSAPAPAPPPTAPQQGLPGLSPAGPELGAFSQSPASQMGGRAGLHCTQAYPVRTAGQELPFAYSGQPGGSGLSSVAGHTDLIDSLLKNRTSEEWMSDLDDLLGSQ
T1 sequence (Q06330 whole entry): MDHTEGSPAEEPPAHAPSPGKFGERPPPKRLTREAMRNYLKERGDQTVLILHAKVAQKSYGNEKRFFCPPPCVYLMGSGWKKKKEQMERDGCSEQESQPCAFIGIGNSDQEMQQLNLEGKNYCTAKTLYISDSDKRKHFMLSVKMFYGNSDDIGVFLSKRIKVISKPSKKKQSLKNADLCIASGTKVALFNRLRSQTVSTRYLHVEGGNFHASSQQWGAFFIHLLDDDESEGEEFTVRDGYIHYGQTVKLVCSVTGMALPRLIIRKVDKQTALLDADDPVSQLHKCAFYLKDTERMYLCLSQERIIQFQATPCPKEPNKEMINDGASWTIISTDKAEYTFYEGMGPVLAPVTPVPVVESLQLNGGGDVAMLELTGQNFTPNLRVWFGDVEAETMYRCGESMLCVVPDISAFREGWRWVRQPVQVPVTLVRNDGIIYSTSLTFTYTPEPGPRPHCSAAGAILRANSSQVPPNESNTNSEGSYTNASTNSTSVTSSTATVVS
Experimental: To perform immunofluorescence staining, HeLa cells or C2C12 cells were grown on cover slips. Cells were washed with 1× ice-cold PBS, fixed with 4% PFA for 5 minutes at room temperature and permeabilized using 0.3% Triton X-100. Subsequently permeabilized cells were blocked for 20 minutes with 1% BSA for 20 minutes at room temperature. Cells were incubated with appropriate primary antibodies for […] at room temperature. Alexa Fluor-488 conjugated secondary antibodies were used to detect primary antibodies. Cells were counterstained with DAPI and mounted in fluorescent mounting media. Fluorescent images were viewed and captured using Zeiss Axioplan microscope at Bioimaging and optics core facility at EPFL.
This raises several possibilities about the mechanism of action of 6-(4-Tert-Butylphenoxy)Pyridin-3-Amine (I3). For example, 6-(4-Tert-Butylphenoxy)Pyridin-3-Amine (I3) treatment could impair nuclear localization of the NICD. A second possible mechanism of inhibition could be targeting of one or more individual components of the transcriptional activation complex in the nucleus. […] In parallel, the 6-(4-Tert-Butylphenoxy)Pyridin-3-Amine (I3) mediated pathway inhibition was determined by Notch driven luciferase measurement (data not shown). […]

[2] = tested on: intestinal tissue (goblet cells); assay: Intestinal toxicity in mice (Alcian blue staining for goblet cells); format: in vivo, mouse
HCC1187 = assay: Annexin V apoptosis, HCC1187; format: cell-based, human; settings: 10 μM, 7 days
Experimental: (§1) FIGS. 6A-6D show 6-(4-Tert-Butylphenoxy)Pyridin-3-Amine (I3) induces G0/G1 cell cycle arrest and apoptosis in human T cell acute lymphoblastic leukemia cell lines and human breast cancer cell line HCC1187. […] Percentage of Annexin V positive (apoptotic) cell population was measured using flow cytometry.
(§2) To quantitate the percentage of apoptotic cells, AnnexinV and 7AAD staining was performed. Thymic cells were suspended in 300 μl of 1× AnnexinV binding buffer (BD Biosciences, San Diego, USA) and incubated with 10 μl of AnnexinV-Cy5 antibody and 10 μl of 7AAD (BD Biosciences, San Diego, USA). Samples were incubated for 15 minutes at room temperature. FACS was performed with in one hour of antibody staining.
(§3) This 6-(4-Tert-Butylphenoxy)Pyridin-3-Amine (I3) mediated proliferative arrest could be due to induction of apoptosis or cell cycle arrest during different phases of cell cycle. […] Therefore to further elucidate the mechanisms responsible for 6-(4-Tert-Butylphenoxy)Pyridin-3-Amine (I3) mediated proliferative arrest cell cycle and apoptosis analyses were carried out. […] To investigate cell death, Annexin V staining was performed and proportion of apoptotic (AnnexinV positive) cell population was determined by flow cytometry analyses after 7 days of treatment.

RPMI8402 = assay: Cell cycle analysis (Ki67 and Hoechst stain), RPMI8402; format: cell-based, human; settings: 10 μM
Experimental: as §1
(§4) In addition to induction of apoptosis, the proliferative arrest observed in 6-(4-Tert-Butylphenoxy)Pyridin-3-Amine (I3) treated human leukemic cell lines and breast cancer cell line also appears to be due to cell cycle arrest in G0/G1 phase of the cell cycle. Leukemic cell lines (RPMI8402, KOPTK1 and TALL1) and breast cancer cell lines were treated with 6-(4-Tert-Butylphenoxy)Pyridin-3-Amine (I3) for 48 hours and cell cycle status was determined using Ki67 and Hoechst stain.

KOPTK1 [3] = assay: Cell cycle analysis (Ki67 and Hoechst stain), KOPTK1; format: cell-based, human; settings: 10 μM
Experimental: as §1, §4

[4] = tested on: Hedgehog signalling (Gli1); assay: Hedgehog signalling Gli1 luciferase assay in HeLa cells; format: cell-based; settings: HeLa cells with Gli1 and Gli1 binding site luciferase
Source text: Using a similar strategy, Hedgehog signalling was activated in HeLa cells by introducing the Gli1 transcription factor and pathway activation was monitored using a promoter sequence containing Gli1 binding sites driving the luciferase expression. […] However it still needs to be determined whether the resistance of Wnt and Hedgehog signalling towards 6-(4-Tert-Butylphenoxy)Pyridin-3-Amine (I3) is cell type specific or whether it is a general phenomenon.

KOPTK1 [5] = assay: Annexin V apoptosis, KOPTK1; format: cell-based, human; settings: 10 μM, 7 days
Experimental: as §1, §2, §3

[6] = tested on: Wnt signalling (β-catenin-TCF/LEF driven luciferase); assay: Wnt signalling TOP-luciferase assay in HeLa cells; format: cell-based; settings: HeLa cells co-transfected with β-catenin and TOP-luciferase
Source text: One of the concerns about the activity of the chemical compound 6-(4-Tert-Butylphenoxy)Pyridin-3-Amine (I3) is its specificity towards the Notch signalling pathway. In order to test whether 6-(4-Tert-Butylphenoxy)Pyridin-3-Amine (I3) could also block other developmental pathways, Applicants have tested its ability to block the Wnt and Hedgehog signalling pathways. In summary, to measure Wnt signalling, HeLa cells were transfected with a plasmid containing a promoter consisting of TCF/LEF binding sites and thereby driving the expression of a luciferase gene (TOP-luciferase). To activate the Wnt pathway, a plasmid encoding for β-catenin was co-transfected into HeLa cells. The co-transfected cells were incubated in the presence or absence of the 6-(4-Tert-Butylphenoxy)Pyridin-3-Amine (I3) chemical compound. Transient introduction of β-catenin leads to an upregulation of Wnt signalling as measured by β-catenin-TCF/LEF driven luciferase activity.

[7] = stated jointly for RPMI8402, KOPTK1 and TALL1

## CC(C)(C)c1ccc(Oc2ccc(N)cn2)cc1 [I3, 6-(4-Tert-Butylphenoxy)Pyridin-3-Amine]
[1]; 800 ng NICD-GFP + 1 μg MAML1-FLAG, I3 10 μM, 24 hours
  co-localization of NICD, MAML1 and CSL/RBP-jk in sub-nuclear compartments: did not perturb the translocation and co-localization of NICD-GFP and MAML1 into sub-nuclear compartment; also recorded: did not perturb their distribution in the nucleus; also recorded: does not impede co-localization of NICD, MAML1 and CSL/RBP-jk in the sub-nuclear compartments
[1]; HeLa cells transfected with NICD-GFP
  nuclear localization of NICD-GFP: not perturbed; also recorded: did not alter its nuclear localization
[2]; C57B16 mice, 25 mg/kg i.p., 7 consecutive days, analysed day 8, 25 mg/kg
  intestinal architecture / goblet cell metaplasia: completely normal with intact architecture and no indication of goblet cell metaplasia; also recorded: did not perturb intestinal homeostasis and without any indication of goblet cell accumulation
[2]; NOD/SCID γc−/− mice with RPMI 8402 xenotransplant, treated for 27 days
  goblet cell numbers and intestinal architecture: did not reveal any abnormality in the goblet cell numbers and intestinal architecture
HCC1187
  apoptosis (Annexin V positive cells): induces apoptosis
RPMI8402; 48 hours
  cell cycle status: induces an arrest in the G0/G1 phase of the cell cycle
RPMI8402; [7]
  increase in cells arrested in G0/G1 phase of the cell cycle: 20-30%
KOPTK1 [3]; 48 hours
  cell cycle status: induces an arrest in the G0/G1 phase of the cell cycle
KOPTK1 [3]; [7]
  increase in cells arrested in G0/G1 phase of the cell cycle: 20-30%
[4]
  Hedgehog signalling: did not inhibit the Hedgehog signalling cascade
KOPTK1 [5]
  apoptosis (Annexin V positive cells): induces significant apoptosis
[6]
  Wnt pathway activation: does not block the Wnt pathway activation
